We go through 17 compounds from US20100099676A1 (SHIONOGI & CO., LTD., priority 2006, published 2010).

The IC50 is the concentration that inhibits the measured activity by half.

Experiment in all cases: Enzyme inhibiting activity of MMPs, fluorogenic peptide substrate
Common to all, as to type: biochemical

Assay [1] has as its target T1, MMP-13 (Homo sapiens, UniProt P45452).
T1 construct: purchased Calbiochem (EMD/MERCK Biosciences)
The conditions noted are these: APMA-activated proenzyme; substrate MOCAc-Pro-Leu-Gly-Leu-A2Pr(DNP)-Ala-Arg-NH2, fluorescent intensity; read-out: IC50 MMP-13. Summed up:
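Pro-MMP-13 was activated with 1 mM APMA at 37° C for 2 h in 50 mM Tris-HCl pH 7.6, 0.3 M NaCl, 10 mM CaCl2, 0.005% Brij35. Activity was read by fluorescence using MOCAc-Pro-Leu-Gly-Leu-A2Pr(DNP)-Ala-Arg-NH2 substrate, with enzyme and inhibitor blank corrections. IC50 is the concentration giving 50% inhibition.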

In assay [2] the target is T2, MMP-2 (Homo sapiens, UniProt P08253).
T2 construct: purchased Calbiochem (EMD/MERCK Biosciences)
T2 sequence (P08253 110-660): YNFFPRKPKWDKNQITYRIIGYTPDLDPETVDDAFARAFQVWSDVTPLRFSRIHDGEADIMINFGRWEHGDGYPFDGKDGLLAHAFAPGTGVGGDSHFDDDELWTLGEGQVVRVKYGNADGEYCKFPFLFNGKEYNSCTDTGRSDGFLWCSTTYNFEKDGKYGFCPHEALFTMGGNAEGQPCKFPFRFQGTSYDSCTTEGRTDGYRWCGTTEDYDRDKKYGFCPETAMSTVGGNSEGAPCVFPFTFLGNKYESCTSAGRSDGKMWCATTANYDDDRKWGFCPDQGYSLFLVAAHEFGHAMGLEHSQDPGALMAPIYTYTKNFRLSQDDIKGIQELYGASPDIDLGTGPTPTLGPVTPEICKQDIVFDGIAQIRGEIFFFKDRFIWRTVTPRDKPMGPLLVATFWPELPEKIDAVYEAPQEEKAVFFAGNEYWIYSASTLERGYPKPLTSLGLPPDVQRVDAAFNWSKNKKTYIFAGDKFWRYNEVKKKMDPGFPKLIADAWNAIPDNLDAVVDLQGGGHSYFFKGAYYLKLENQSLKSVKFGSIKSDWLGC
Particulars: substrate MOCAc-Pro-Leu-Gly-Leu-A2Pr(DNP)-Ala-Arg-NH2, fluorescent intensity. How it is done: (§1) Various human MMPs (MMP-2, MMP-9 and MMP-13) were purchased from Calbiochem (EMD/MERCK Biosciences).
(§2) The enzyme activity of MMPs was measured according to the method described in C. Graham Knight, Frances Willenbrock and Gillian Murphy: A novel coumarin-labelled peptide for sensitive continuous assays of the matrix metalloproteinases: FEBS LETT., 296, (1992), 263-266. As a substrate, MOCAc-Pro-Leu-Gly-Leu-A2Pr(DNP)- Ala-Arg-NH2 (Peptide Institute, Inc. Osaka, Japan) was used, and the following four assays are performed per compound (inhibitor) for measuring the inhibiting activity.
(§3) (A) Substrate (synthetic substrate), enzyme (MMPs), inhibitor
(§4) (B) Substrate (synthetic substrate), inhibitor
(§5) (C) Substrate (synthetic substrate), enzyme (MMPs)
(§6) (D) Substrate (synthetic substrate)
(§7) In each assay, the fluorescent intensity was measured, and inhibition (%) was calculated by the following equation.
(§8) Inhibition (%)=[I−(A−B)/(C−D)]×100
(§9) IC50 indicates a concentration at which inhibition (%) is 50%.

The target of assay [3] is T3, MMP-9 (Homo sapiens, UniProt P14780).
T3 construct: purchased Calbiochem (EMD/MERCK Biosciences)
Particulars: substrate MOCAc-Pro-Leu-Gly-Leu-A2Pr(DNP)-Ala-Arg-NH2, fluorescent intensity. How it is done:
as §1, §2, §3, §4, §5, §6, §7, §8, §9

T3 sequence (P14780 94-707): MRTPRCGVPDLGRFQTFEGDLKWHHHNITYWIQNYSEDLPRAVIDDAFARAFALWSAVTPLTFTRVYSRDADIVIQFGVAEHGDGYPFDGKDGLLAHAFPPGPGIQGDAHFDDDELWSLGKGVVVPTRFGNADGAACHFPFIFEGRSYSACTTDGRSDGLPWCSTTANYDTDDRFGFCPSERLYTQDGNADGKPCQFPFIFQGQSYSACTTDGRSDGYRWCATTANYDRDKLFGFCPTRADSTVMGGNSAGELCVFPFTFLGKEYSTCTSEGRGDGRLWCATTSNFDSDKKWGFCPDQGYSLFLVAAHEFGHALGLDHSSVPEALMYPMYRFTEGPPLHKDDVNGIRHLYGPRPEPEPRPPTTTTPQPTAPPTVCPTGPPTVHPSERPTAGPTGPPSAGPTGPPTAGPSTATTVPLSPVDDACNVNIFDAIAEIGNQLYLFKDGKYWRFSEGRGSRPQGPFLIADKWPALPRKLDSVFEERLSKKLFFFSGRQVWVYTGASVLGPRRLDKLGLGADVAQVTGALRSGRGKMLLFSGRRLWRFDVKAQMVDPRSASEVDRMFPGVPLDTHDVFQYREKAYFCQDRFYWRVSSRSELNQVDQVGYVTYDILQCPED

`CC(C)COc1ccc(C#Cc2ccc(N3CCN(S(=O)(=O)N[C@@H](C(=O)O)C(C)C)CC3)cc2)cc1C(=O)NCc1ccc(S(C)(=O)=O)cc1` [Compound V-6, (R)-2-(4-{4-[4-isobutoxy-3-(4-methanesulfonylbenzylcarbamoyl)-phenylethynyl]-phenyl}-piperazine-1-sulfonylamino)-3-methylbutanoic acid]: the concentration for half-maximal inhibition (IC50) was 19 nM in assay [1], > 10000 nM in assay [2] and > 10000 nM in assay [3].

In the case of `C[C@@H](NS(=O)(=O)N1CCN(c2ccc(C#Cc3ccc4c(c3)/C(=N\OCc3ccccc3)CCO4)cc2)CC1)C(=O)O` [Compound I-113, (R)-2-[4-(4-{4-[(Z)-benzyloxyimino]-chroman-6-ylethynyl}-phenyl)-piperazine-1-sulfonylamino]-proponic acid], the IC50 was 71 nM in assay [1], > 10000 nM in assay [2] and > 10000 nM in assay [3].

Consider `COc1ccc(Cn2ccc3ccc(C#Cc4ccc(N5CCN(S(=O)(=O)N[C@H](C)C(=O)O)CC5)cc4)cc3c2=O)cc1` [Compound V-36, (R)-2-(4-{4-[2-(4-methoxybenzyl)-1-oxo-1,2-dihydroisoquinolin-7-ylethynyl]-phenyl}-piperazine-1-sulfonylamino)-proponic acid], for which the figures for the IC50 in assay [1], in assay [2] and in assay [3] were 5 nM, 1000 to 10000 nM and 1000 to 10000 nM, respectively.

With `CC(C)COc1ccc(C#Cc2ccc(N3CCN(S(=O)(=O)N[C@H](C)C(=O)O)CC3)cc2)cc1C(=O)NCc1ccccc1` [III-121, (R)-2-{4-[4-(3-benzylcarbamoyl-4-isobutoxyphenylethynyl)-phenyl]-piperazine-1-sulfonylamino}-proponic acid], the IC50 was 25 nM in assay [1], > 10000 nM in assay [2] and > 10000 nM in assay [3].

Consider `C[C@@H](NS(=O)(=O)N1CCN(c2ccc(C#Cc3ccc4c(c3)c(/C=C/C#N)cn4C)cc2)CC1)C(=O)O` [Compound I-114, (R)-2-(4-{4-[3-((E)-2-cyanovinyl)-1-methyl-1H-indol-5-ylethynyl]-phenyl}-piperazine-1-sulfonylamino)-proponic acid], for which the values for the IC50 in assay [1], in assay [2] and in assay [3] were 11 nM, 1000 to 10000 nM and > 10000 nM, respectively.

In the case of `CC(C)[C@@H](NS(=O)(=O)N1CCN(c2ccc(C#Cc3ccnc(C(=O)NCc4cccc(I)c4)c3)cc2)CC1)C(=O)O` [III-226, (R)-2-(4-{4-[2-(3-iodobenzylcarbamoyl)-pyridin-4-ylethynyl]-phenyl}-piperazine-1-sulfonylamino)-3-methylbutanoic acid], the IC50 in assay [1] is 23 nM; in assay [2], > 10000 nM; in assay [3] it was > 10000 nM.

As to `C[C@@H](NS(=O)(=O)N1CCN(c2ccc(C#Cc3ccnc(C(=O)NCc4ccc(Cl)cc4)c3)cc2)CC1)C(=O)O` [III-1, (R)-2-(4-{4-[2-(4-chrolobenzylcarbamoyl)-pyridin-4-ylethynyl]-phenyl}-piperazine-1-sulfonylamino)-proponic acid], the IC50 was 3 nM in assay [1], 1000 to 10000 nM in assay [2] and > 10000 nM in assay [3].

On to `CC(C)[C@@H](NS(=O)(=O)N1CCN(c2ccc(C#Cc3ccnc(C(=O)NCc4cccc(Cl)c4)c3)cc2)CC1)C(=O)O` [III-81, (R)-2-(4-{4-[2-(3-chrolobenzylcarbamoyl)-pyridin-4-ylethynyl]-phenyl}-piperazine-1-sulfonylamino)-3-methylbutanoic acid], for which the IC50 was 6 nM in assay [1], 1000 to 10000 nM in assay [2] and > 10000 nM in assay [3].

Consider `C[C@@H](NS(=O)(=O)N1CCN(c2ccc(C#Cc3cccc(-c4ncc(-c5ccc(F)cc5)o4)c3)cc2)CC1)C(=O)O` [III-12, (R)-2-[4-(4-{3-[5-(4-fluorophenyl)-oxazol-2-yl]-phenylethynyl}-phenyl)-piperazine-1-sulfonylamino]-proponic acid], for which the IC50 was 4 nM in assay [1], > 10000 nM in assay [2] and > 10000 nM in assay [3].

For the compound `C[C@@H](NS(=O)(=O)N1CCN(c2ccc(C#Cc3ccc4c(c3)c(/C=C/Cl)cn4C)cc2)CC1)C(=O)O` [Compound V-44, (R)-2-(4-{4-[3-((E)-2-chrolovinyl)-1-methyl1H-indol-5-ylethynyl]-phenyl}-piperazine-1-sulfonylamino)-proponic acid], the IC50 is 16 nM in assay [1], 1000 to 10000 nM in assay [2] and > 10000 nM in assay [3].

Regarding `CC(C)[C@@H](NS(=O)(=O)N1CCN(c2ccc(C#Cc3ccc4ncn(Cc5ccc(F)cc5)c(=O)c4c3)cc2)CC1)C(=O)O` [Compound V-59, (R)-2-(4-{4-[3-(4-fluorobenzyl)-4-oxo-3,4-dihydroquinazolin-6-ylethynyl]-phenyl}-piperazine-1-sulfonylamino)-3-methylbutanoic acid], the concentration for half-maximal inhibition (IC50) is 10 nM in assay [1], 1000 to 10000 nM in assay [2] and > 10000 nM in assay [3].

Take `CC(C)[C@@H](NS(=O)(=O)N1CCN(c2ccc(C#Cc3ccnc(C(=O)NCc4ccc(C(F)(F)F)cc4)c3)cc2)CC1)C(=O)O` [III-194, (R)-3-methyl-2-(4-{4-[2-(4-trifluoromethylbenzylcarbamoyl)-pyridin-4-ylethynyl]-phenyl}-piperazine-1-sulfonylamino)-butanoic acid]: the values for the half-maximal inhibitory concentration (IC50) in assay [1], in assay [2] and in assay [3] were 26 nM, > 10000 nM and > 10000 nM, respectively.

In the case of `C[C@@H](NS(=O)(=O)N1CCN(c2ccc(C#Cc3ccc4ccn(Cc5ccccc5)c(=O)c4c3)cc2)CC1)C(=O)O` [III-5, (R)-2-{4-[4-(2-benzyl-1-oxo-1,2-dihydroisoquinolin-7-ylethynyl)-phenyl]-piperazine-1-sulfonylamino}-proponic acid], the IC50 in assay [1] is 5 nM; in assay [2] it was 1000 to 10000 nM; in assay [3] it was > 10000 nM.

On to `CCC[C@H](NS(=O)(=O)N1CCN(c2ccc(C#Cc3ccnc(C(=O)NCc4ccc(OC)cc4)c3)cc2)CC1)C(=O)O` [Compound V-33, (5)-2-(4-{4-[2-(4-methoxybenzylcarbamoyl)-pyridin-4-ylethynyl]-phenyl}-piperazine-1-sulfonylamino)-pentanoic acid], for which the values for the IC50 in assay [1], in assay [2] and in assay [3] were 3 nM, 1000 to 10000 nM and > 10000 nM, respectively.

Take `C[C@H](NS(=O)(=O)N1CCN(c2ccc(C#Cc3ccnc(C(=O)NCc4ccc(Cl)cc4)c3)cc2)CC1)C(=O)O` [III-59, (S)-2-(4-{4-[2-(4-chrolobenzylcarbamoyl)-pyridin-4-ylethynyl]-phenyl}-piperazine-1-sulfonylamino)-proponic acid]: the IC50 in assay [1] was 6 nM; in assay [2], > 10000 nM; in assay [3] it was > 10000 nM.

Turning to `COCCOc1ccc(C#Cc2ccc(N3CCN(S(=O)(=O)N[C@H](C)C(=O)O)CC3)cc2)cc1-c1ncc(CC(=O)NCc2ccccc2)o1` [Compound V-19, (R)-2-(4-{4-[3-[5-(benzylcarbamoylmethyl)-oxazol-2-yl]-4-(2-methoxyethoxy)-phenylethynyl]-phenyl}-piperazine-1-sulfonylamino)-proponic acid], the values for the IC50 in assay [1], in assay [2] and in assay [3] were 8 nM, 1000 to 10000 nM and > 10000 nM, respectively.

As to `CC(C)[C@@H](NS(=O)(=O)N1CCN(c2ccc(C#Cc3ccnc(C(=O)NCc4ccc(S(C)(=O)=O)cc4)c3)cc2)CC1)C(=O)O` [III-206, (R)-2-(4-{4-[2-(4-methanesulfonylbenzylcarbamoyl)-pyridin-4-ylethynyl]-phenyl}-piperazine-1-sulfonylamino)-3-methylbutanoic acid], the IC50 is 1 nM in assay [1], 100 to 1000 nM in assay [2] and > 10000 nM in assay [3].
